Results from US11484561B2, “Morus extracts rich in N-acids of imino sugars and or pipecolic acids” (Phynova Limited, priority 2011, dated 2022).
Structures can show the parent of a compound that is named as a salt.

Columns and labels:
Type in all cases: biochemical
glycogen phosphorylase = assay: Glycogen phosphorylase assay; conditions: for glycogen phosphorylase inhibition: words, no concentration; for GP Inhibition (%): at 400 μM
α-D-glucosidase (Yeast) = target: T1, α-D-glucosidase (Yeast) (Saccharomyces cerevisiae, UniProt P53341); assay: Glycosidase assay, α-D-glucosidase (Yeast)
T1 construct: purchased Sigma-Aldrich
Method: (§1) The assays used p-nitrophenyl-substrates and commercial enzymes purchased from Sigma-Aldrich. Enzymes were assayed at 27° C. in 0.1M citric acid/0.2M disodium hydrogen phosphate buffers at the optimum pH for the enzyme. The incubation mixture consisted of 10 μl enzyme solution, 10 μl of 10 mg/ml aqueous solution of extract and 50 μl of the appropriate 5 mM p-nitrophenyl substrate made up in buffer at the optimum pH for the enzyme. The reactions were stopped by addition of 70 μl 0.4M glycine (pH 10.4) during the exponential phase of the reaction, which had been determined at the beginning using uninhibited assays in which water replaced mulberry fractions. Final absorbances were read at 405 nm using a Versamax microplate reader (Molecular Devices). Assays were carried out in triplicate, and the values given are means of the three replicates per assay. Results are expressed as % inhibition.
(§2) Substrates are 10 mM p-nitrophenyl-glycopyranosides. Enzymes are purchased from Sigma and run at the pH optima

[1] = tested on: α-D-glucosidase (Bacillus); assay: Glycosidase assay, α-D-glucosidase (Bacillus)
Method: as §1, §2

α-D-glucosidase (rice) = target: T2, α-D-glucosidase (rice) (Oryza sativa subsp. japonica, UniProt Q653V7); assay: Glycosidase assay, α-D-glucosidase (rice)
T2 construct: purchased Sigma-Aldrich
Method: as §1, §2

β-D-glucosidase (almond) = assay: Glycosidase assay, β-D-glucosidase (almond)
Method: as §1, §2

[2] = target: T3, α-D-galactosidase (green coffee bean) (Coffea arabica, UniProt Q42656); assay: Glycosidase assay, α-D-galactosidase (green coffee bean); conditions: % inhibition; for α-D-galactosidase coffee bean: Table 6, concentration not given (method: 10 mg/ml solution)
T3 construct: purchased Sigma-Aldrich
Method: as §1, §2

[3] = target: T4, β-D-galactosidase (bovine) (Bos taurus, UniProt Q58D55); assay: Glycosidase assay, β-D-galactosidase (bovine)
T4 construct: purchased Sigma-Aldrich
T4 sequence (Q58D55 28-653): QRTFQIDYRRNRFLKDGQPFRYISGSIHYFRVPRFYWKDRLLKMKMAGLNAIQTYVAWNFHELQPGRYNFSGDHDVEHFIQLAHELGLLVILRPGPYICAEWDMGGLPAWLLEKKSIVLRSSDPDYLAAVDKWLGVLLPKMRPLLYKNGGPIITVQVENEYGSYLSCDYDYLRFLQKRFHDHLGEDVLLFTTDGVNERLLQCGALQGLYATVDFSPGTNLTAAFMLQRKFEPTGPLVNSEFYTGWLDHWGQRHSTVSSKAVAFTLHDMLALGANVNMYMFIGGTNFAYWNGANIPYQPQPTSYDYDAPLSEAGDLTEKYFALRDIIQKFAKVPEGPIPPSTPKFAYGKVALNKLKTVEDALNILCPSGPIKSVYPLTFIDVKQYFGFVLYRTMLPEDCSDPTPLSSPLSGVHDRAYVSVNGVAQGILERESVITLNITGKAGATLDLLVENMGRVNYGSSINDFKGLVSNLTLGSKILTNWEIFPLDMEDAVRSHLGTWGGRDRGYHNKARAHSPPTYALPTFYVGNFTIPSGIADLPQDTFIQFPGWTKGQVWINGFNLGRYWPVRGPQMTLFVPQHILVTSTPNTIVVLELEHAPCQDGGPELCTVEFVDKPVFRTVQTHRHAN
Method: as §1, §2

[4] = target: T5, α-D-mannosidase (Jack bean) (Canavalia ensiformis, UniProt C0HJB3); assay: Glycosidase assay, α-D-mannosidase (Jack bean); conditions: % inhibition
T5 construct: purchased Sigma-Aldrich
T5 sequence (C0HJB3 1-562 limits assumed): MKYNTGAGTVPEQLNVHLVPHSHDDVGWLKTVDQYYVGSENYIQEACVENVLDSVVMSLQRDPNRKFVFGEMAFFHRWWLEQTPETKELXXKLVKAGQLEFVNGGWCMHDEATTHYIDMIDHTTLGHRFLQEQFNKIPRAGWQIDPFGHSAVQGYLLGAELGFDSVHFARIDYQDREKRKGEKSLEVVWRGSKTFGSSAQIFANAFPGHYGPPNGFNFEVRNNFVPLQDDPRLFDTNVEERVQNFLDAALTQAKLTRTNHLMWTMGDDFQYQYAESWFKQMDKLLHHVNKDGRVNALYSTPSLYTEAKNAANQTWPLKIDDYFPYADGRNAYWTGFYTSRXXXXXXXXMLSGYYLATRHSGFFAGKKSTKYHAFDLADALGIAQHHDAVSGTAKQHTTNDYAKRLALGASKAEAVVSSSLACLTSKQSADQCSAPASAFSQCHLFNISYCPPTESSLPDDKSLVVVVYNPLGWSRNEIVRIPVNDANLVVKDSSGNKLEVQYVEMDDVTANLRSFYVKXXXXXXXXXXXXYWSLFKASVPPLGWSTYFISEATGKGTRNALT
Method: as §1, with “The reactions were stopped by addition of 70 μl 0.4M glycine (pH 10.4) during the exponential phase of the reaction, which had been determined at the beginning using uninhibited assays in which water replaced mulberry fractions.” left out
as §2

[5] = tested on: β-D-mannosidase Cellulomonas fimi; assay: Glycosidase assay, β-D-mannosidase (Cellulomonas fimi); conditions: % inhibition; for β-D-mannosidase Cellulomonas fimi: Table 6, concentration not given (method: 10 mg/ml solution)
Method: as §1

[6] = tested on: naringinase (P. decumbens); assay: Glycosidase assay, naringinase (P. decumbens); conditions: % inhibition
Method: as §1, §2

[7] = tested on: N-acetyl-β-D-gluc (Bovine kidney); assay: Glycosidase assay, N-acetyl-β-D-gluc (Bovine kidney)
Method: as §1, §2

[8] = tested on: N-acetyl-β-D-gluc (Jack bean); assay: Glycosidase assay, N-acetyl-β-D-gluc (Jack bean)
Method: as §1, §2

[9] = target: T6, amyloglucosidase (A. niger) (Aspergillus niger, UniProt P69328); assay: Glycosidase assay, amyloglucosidase (A. niger); conditions: % inhibition; for amyloglucosidase A. niger: Table 6, concentration not given (method: 10 mg/ml solution)
T6 construct: purchased Sigma-Aldrich
Method: as §1, §2

[10] = target: T7, β-glucuronidase (bovine liver) (Bos taurus, UniProt A3KMY8); assay: Glycosidase assay, β-glucuronidase (bovine liver); conditions: Table 6; % inhibition; concentration not given (method: 10 mg/ml solution)
T7 construct: purchased Sigma-Aldrich; host or cells: bovine liver
T7 sequence (A3KMY8 1-652): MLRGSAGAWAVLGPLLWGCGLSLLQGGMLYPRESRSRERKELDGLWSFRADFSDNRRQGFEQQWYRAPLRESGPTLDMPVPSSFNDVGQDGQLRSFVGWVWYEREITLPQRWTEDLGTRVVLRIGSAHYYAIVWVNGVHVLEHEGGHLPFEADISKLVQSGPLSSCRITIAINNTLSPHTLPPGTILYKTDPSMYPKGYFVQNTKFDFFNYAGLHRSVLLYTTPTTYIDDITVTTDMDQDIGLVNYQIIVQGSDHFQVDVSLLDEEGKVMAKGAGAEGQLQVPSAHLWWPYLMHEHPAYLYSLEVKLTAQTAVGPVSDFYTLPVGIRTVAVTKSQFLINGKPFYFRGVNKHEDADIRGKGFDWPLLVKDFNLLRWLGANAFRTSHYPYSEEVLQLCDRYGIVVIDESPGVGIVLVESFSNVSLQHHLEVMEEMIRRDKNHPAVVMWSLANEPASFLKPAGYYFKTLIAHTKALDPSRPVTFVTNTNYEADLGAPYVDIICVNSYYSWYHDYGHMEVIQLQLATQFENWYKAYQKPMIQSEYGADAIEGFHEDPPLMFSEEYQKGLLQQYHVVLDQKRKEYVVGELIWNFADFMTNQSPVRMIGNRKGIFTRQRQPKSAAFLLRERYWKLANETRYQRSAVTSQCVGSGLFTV
Method: as §1, §2

α-L-fucosidase (bovine) = target: T8, α-L-fucosidase (bovine) (Bos taurus, UniProt Q2KIM0); assay: Glycosidase assay, α-L-fucosidase (bovine); conditions: Table 16; % inhibition; concentration not given
T8 construct: purchased Sigma-Aldrich
T8 sequence (Q2KIM0 23-468): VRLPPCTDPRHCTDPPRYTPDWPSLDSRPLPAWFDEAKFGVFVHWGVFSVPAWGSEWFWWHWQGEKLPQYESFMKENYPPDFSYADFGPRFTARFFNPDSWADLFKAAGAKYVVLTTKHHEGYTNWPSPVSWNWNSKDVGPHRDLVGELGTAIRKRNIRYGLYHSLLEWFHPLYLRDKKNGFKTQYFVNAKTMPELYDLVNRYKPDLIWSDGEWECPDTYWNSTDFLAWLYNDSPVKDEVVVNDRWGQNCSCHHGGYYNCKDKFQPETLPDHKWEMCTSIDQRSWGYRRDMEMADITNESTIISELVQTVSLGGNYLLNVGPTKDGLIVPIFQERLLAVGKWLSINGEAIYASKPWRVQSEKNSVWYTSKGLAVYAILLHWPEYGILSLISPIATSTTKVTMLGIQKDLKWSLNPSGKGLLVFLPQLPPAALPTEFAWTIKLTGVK
Method: as §1

β-D-glucosidase (yeast) = assay: Glycosidase assay, β-D-glucosidase (yeast); conditions: Table 16; % inhibition; concentration not given
Method: as §1

[11] = Table 6, % inhibition, concentration not given (method: 10 mg/ml solution)
[12] = Table 6, concentration not given (method: 10 mg/ml solution)
[13] = Table 9, sugar fractions, 10 mM p-nitrophenyl substrate, concentration given only for sucrose (10 mg/ml)
[14] = Table 16, % inhibition, concentration not given
[15] = Table 16, concentration not given

T1 sequence (P53341 whole entry): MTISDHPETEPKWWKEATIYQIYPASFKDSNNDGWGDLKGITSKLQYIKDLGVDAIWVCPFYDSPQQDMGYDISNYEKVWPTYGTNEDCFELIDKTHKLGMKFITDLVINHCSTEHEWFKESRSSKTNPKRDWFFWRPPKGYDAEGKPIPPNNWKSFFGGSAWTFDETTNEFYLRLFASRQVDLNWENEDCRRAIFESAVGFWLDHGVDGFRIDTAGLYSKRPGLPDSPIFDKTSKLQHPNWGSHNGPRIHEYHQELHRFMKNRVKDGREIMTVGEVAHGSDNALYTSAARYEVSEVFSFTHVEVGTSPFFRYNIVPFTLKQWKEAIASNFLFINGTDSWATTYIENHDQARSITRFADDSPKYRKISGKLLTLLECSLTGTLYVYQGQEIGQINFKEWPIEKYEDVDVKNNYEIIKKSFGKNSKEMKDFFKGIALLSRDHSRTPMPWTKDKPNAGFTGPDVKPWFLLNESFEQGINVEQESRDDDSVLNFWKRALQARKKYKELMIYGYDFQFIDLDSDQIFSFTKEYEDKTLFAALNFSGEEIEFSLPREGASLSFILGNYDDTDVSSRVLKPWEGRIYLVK
T3 sequence (Q42656 16-378): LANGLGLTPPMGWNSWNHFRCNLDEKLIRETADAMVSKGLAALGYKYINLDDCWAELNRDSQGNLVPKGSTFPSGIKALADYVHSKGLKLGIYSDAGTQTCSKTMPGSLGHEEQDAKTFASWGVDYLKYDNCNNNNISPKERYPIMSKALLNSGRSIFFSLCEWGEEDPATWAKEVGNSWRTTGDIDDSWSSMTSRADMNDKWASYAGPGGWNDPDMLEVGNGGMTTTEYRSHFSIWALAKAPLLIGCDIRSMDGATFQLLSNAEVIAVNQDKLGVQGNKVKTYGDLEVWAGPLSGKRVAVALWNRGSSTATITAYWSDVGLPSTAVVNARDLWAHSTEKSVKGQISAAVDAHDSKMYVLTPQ
T2 sequence (Q653V7 34-885): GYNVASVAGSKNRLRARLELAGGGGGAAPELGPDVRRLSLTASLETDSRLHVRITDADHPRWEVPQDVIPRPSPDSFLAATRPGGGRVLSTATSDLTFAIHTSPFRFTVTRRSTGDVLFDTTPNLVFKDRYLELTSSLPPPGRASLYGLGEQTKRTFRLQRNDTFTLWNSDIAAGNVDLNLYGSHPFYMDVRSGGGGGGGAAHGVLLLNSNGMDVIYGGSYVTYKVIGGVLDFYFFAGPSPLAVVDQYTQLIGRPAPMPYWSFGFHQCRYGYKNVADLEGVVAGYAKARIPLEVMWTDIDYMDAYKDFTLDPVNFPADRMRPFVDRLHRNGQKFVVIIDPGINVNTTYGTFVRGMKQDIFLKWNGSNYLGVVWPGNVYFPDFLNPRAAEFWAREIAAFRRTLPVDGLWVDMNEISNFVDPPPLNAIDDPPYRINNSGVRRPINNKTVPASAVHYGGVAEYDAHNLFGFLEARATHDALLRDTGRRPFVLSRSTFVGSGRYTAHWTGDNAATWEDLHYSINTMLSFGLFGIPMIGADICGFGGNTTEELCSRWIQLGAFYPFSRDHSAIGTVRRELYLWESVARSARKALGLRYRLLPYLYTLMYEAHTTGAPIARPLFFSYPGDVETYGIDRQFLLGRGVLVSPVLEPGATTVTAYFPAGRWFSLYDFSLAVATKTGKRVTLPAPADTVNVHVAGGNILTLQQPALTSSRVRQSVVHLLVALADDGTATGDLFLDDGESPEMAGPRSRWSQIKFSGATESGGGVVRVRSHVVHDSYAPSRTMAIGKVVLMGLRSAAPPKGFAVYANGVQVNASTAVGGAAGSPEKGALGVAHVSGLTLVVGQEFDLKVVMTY
T6 sequence (P69328 25-640): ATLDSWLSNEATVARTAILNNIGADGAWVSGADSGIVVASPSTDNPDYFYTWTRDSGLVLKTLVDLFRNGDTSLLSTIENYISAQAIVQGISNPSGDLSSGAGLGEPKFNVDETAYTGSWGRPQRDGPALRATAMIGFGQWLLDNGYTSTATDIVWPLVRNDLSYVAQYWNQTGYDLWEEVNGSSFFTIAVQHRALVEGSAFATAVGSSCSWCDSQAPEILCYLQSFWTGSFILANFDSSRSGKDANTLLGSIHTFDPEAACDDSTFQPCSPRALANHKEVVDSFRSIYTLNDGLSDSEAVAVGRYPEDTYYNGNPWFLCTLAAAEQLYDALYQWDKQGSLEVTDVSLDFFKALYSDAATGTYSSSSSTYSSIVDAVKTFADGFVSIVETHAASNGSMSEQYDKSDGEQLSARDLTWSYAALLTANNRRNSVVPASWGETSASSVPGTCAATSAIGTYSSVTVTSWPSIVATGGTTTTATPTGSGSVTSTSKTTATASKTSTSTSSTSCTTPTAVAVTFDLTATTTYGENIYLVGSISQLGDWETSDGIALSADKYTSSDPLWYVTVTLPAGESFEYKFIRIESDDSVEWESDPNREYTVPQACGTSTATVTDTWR

Structure (SMILES) | glycogen phosphorylase inhibition (glycogen phosphorylase) | GP Inhibition (%) (glycogen phosphorylase) | α-D-glucosidase (Yeast) (α-D-glucosidase (Yeast); [11]) [%] | α-D-glucosidase (Bacillus) [1, 11] [%] | α-D-glucosidase (Rice) (α-D-glucosidase (rice); [11]) [%] | β-D-glucosidase almond (β-D-glucosidase (almond); [11]) [%] | α-D-galactosidase coffee bean [2] [%] | β-D-galactosidase (Bovine) [3, 11] [%] | α-D-mannosidase (Jack bean) [4, 12] [%] | β-D-mannosidase Cellulomonas fimi [5] [%] | Naringinase (P. decumbens) [6, 12] [%] | N-acetyl-β-D-gluc (Bovine kidney) [7, 11] [%] | N-acetyl-β-D-gluc Jack bean [8, 11] [%] | amyloglucosidase A. niger [9] [%] | β-glucuronidase bovine liver [10] [%] | also measured
OC[C@H]1NCC[C@@H](O)[C@@H]1O [fagomine, Fagomine] | do not inhibit | – | – | – | – | – | – | – | – | – | – | – | – | – | – | –
O=C(O)[C@@H]1CC[C@@H](O)CN1 [drawing 7] | – | 0 | – | – | – | – | – | – | – | – | – | – | – | – | – | –
C[n+]1cc(C(=O)[O-])ccc1O [6OH trig, 6-hydroxytrigonelline] | – | 11.9 | 0 | −36 | 0 | 0 | −16 | 8 | 0 | 0 | 0 | 12 | −11 | 0 | 0 | –
C[n+]1cccc(C(=O)[O-])c1 [trigonellin HCl, trigonelline] | not greatly inhibitory | 6.9 | 0 | −12 | 0 | 0 | 0 | 0 | 0 | 0 | 0 | −8 | 0 | 0 | 0 | –
O=C(O)[C@@H]1CC[C@@H](O)CN1 [compound 900439] | – | – | 0 | 0 | 0 | 0 | −6 | 0 | 0 | 0 | −6 | 9 | 8 | 0 | 0 | –
OC[C@H]1O[C@@](CO)(O[C@H]2O[C@H](CO)[C@@H](O)[C@H](O)[C@H]2O)[C@@H](O)[C@@H]1O [sucrose] | do not inhibit | – | – | – | – | – | – | – | – | – | – | – | – | – | – | α-D-glucosidase (Yeast) (α-D-glucosidase (Yeast); [13]): 0 % inhibition; α-D-glucosidase (Bacillus) [1, 13]: −7 % inhibition; α-D-glucosidase (Rice) (α-D-glucosidase (rice); [13]): 0 % inhibition; β-D-glucosidase almond (β-D-glucosidase (almond); [13]): 0 % inhibition; β-D-galactosidase (Bovine) [3, 13]: 0 % inhibition; N-acetyl-β-D-gluc (Bovine kidney) ([7]; Table 9, sucrose 10 mg/ml): 0 % inhibition; N-acetyl-β-D-gluc Jack bean [8, 13]: 0 % inhibition
OC[C@H]1NC[C@@H](O)[C@@H]1O [DAB, 1,4-dideoxy-1,4-imino-D-arabinitol] | – | – | – | – | – | – | – | – | – | – | – | – | – | – | – | α-D-glucosidase (Yeast) (α-D-glucosidase (Yeast); [14]): 100%; α-D-glucosidase (Bacillus) [1, 14]: 93%; α-D-glucosidase (Rice) (α-D-glucosidase (rice); [14]): 100%; α-D-galactosidase (Green coffee beans) [2, 15]: 7%; β-D-galactosidase (Bovine) [3, 14]: 100%; α-L-fucosidase (Bovine) (α-L-fucosidase (bovine)): 5%; α-D-mannosidase (Jack bean) [4, 15]: 3%; β-D-mannosidase (C. fimi) [5, 15]: 95%; Naringinase (P. decumbens) [6, 15]: 3%; N-acetyl-β-D-gluc (Bovine kidney) [7, 14]: −8%; Amyloglucosidase [9, 15]: 47%; β-D-glucosidase (yeast) (β-D-glucosidase (yeast)): 100%
